The values that follow come from ChEMBL document CHEMBL1671823, “Novel Cyclic Phosphinic Acids as GABAC ρ Receptor Antagonists: Design, Synthesis, and Pharmacology” (ACS Med Chem Lett, 2011).

Active and inactive are the calls of the source. The rule behind the calls is not given here.

Test [1] addresses T1, Gamma-aminobutyric acid receptor subunit rho-1 (Homo sapiens, UniProt P24046). Briefly: Antagonist activity at human recombinant GABAc rho-1 receptor expressed in Xenopus laevis oocytes assessed as inhibition of GABA-induced current by two electrode voltage clamp technique. Type of test: functional, cell-based, Oocyte. The conditions noted are these: for Kb: Oocyte. On the technique in general: Two-electrode voltage clamp holds a large cell at a set potential and records current.

The target in test [2] is Gamma-aminobutyric acid receptor subunit rho-2 (Homo sapiens, UniProt P28476). Briefly: Antagonist activity at human recombinant GABAc rho-2 receptor expressed in Xenopus laevis oocytes assessed as inhibition of GABA-induced current by two electrode voltage clamp technique. The class given is functional, cell-based, Oocyte.
Sequence of Gamma-aminobutyric acid receptor subunit rho-2 (P28476 whole entry): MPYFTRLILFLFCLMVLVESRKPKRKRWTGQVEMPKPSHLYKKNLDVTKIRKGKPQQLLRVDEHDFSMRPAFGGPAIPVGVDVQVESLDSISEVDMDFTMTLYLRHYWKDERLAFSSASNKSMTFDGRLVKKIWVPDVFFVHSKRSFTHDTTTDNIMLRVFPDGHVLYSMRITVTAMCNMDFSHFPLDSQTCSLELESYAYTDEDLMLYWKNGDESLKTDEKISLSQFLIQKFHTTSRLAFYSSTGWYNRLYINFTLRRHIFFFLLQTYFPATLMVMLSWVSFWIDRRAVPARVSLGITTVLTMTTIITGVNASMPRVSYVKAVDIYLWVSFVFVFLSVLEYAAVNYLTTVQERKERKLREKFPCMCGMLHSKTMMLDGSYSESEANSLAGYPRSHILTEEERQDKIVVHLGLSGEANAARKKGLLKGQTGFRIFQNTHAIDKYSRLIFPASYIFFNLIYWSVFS
The target in test [3] is GABA-B receptor (Homo sapiens, UniProt O75899+Q9UBS5). The test is described as follows: Antagonist activity at human recombinant GABAb 1b/2 receptor expressed in Xenopus laevis oocytes co-expressing GIRK1/4 assessed as inhibition of GABA-induced current by two electrode voltage clamp technique. Type of test: functional, cell-based, Oocyte.
Sequence of GABA-B receptor (Q9UBS5 whole entry): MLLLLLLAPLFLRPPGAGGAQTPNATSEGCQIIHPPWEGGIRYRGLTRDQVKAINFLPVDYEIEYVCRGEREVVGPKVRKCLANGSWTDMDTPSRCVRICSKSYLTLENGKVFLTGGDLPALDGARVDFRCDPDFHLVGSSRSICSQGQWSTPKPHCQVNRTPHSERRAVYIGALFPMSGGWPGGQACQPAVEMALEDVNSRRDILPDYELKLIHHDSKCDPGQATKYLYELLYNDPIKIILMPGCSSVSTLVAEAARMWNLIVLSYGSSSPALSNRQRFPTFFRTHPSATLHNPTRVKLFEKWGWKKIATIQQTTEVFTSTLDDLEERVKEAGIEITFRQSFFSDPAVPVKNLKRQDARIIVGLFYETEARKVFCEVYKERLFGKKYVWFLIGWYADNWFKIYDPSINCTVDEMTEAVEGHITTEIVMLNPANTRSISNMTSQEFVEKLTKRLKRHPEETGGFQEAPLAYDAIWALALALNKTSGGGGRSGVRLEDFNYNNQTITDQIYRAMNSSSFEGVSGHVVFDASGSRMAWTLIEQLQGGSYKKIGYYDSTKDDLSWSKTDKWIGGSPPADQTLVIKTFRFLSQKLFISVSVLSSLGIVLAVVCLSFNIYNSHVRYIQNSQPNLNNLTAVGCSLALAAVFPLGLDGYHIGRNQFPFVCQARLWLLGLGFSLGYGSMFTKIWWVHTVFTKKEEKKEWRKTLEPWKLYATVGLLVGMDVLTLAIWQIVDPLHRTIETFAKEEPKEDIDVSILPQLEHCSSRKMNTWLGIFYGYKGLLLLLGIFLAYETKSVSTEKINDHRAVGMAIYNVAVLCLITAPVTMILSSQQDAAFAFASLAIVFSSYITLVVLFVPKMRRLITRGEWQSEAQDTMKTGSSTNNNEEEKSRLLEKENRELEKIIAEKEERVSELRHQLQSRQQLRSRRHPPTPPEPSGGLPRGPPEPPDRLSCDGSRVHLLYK
Sequence of GABA-B receptor (O75899 whole entry): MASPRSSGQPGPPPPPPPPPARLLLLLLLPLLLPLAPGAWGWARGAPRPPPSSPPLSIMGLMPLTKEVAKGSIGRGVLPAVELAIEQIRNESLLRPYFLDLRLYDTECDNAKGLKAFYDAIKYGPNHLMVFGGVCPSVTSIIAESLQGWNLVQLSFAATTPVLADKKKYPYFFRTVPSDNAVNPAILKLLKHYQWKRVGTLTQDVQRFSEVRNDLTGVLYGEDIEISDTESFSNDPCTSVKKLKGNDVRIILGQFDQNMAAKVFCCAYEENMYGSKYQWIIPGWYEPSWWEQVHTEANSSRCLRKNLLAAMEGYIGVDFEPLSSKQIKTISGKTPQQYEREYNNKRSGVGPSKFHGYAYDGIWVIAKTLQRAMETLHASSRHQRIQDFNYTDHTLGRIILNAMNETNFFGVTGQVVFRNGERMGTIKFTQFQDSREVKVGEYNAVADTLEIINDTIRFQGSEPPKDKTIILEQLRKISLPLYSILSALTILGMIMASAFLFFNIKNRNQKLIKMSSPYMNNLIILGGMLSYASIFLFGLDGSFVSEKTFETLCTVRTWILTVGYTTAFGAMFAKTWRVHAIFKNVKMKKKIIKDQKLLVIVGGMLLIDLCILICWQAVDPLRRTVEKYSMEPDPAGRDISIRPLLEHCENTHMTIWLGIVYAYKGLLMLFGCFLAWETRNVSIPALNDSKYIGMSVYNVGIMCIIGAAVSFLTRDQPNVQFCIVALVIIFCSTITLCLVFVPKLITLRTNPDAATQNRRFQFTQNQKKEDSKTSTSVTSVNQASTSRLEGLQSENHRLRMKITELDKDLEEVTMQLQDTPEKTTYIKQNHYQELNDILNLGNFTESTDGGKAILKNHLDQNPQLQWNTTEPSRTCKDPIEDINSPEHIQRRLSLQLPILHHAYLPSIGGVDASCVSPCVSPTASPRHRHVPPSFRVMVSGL
Test [4] concerns the target T2, GABA-A receptor; alpha-1/beta-2/gamma-2 (Homo sapiens) (UniProt P14867+P47870+P18507). Briefly: Antagonist activity at human recombinant GABAA alpha1beta2gamma2L receptor expressed in Xenopus laevis oocytes assessed as inhibition of GABA-induced current at 600 uM by two electrode voltage clamp technique. The conditions noted are these: Oocyte. Type of test: functional, cell-based.

Test [5] concerns the target T3, GABA-B receptor (Homo sapiens) (UniProt Q9UBS5+O75899). The test is described as follows: […] activity at human recombinant GABAb 1b/2 receptor expressed in Xenopus laevis oocytes co-expressing GIRK1/4 assessed as inhibition of GABA-induced current by two electrode voltage clamp technique. Type of test: functional, cell-based. The conditions noted are these: Oocyte.

In test [6] the target is T3, GABA-B receptor (Homo sapiens). The test is described as follows: […] activity at human recombinant GABAb 1b/2 receptor expressed in Xenopus laevis oocytes co-expressing GIRK1/4 assessed as inhibition of GABA-induced current at 10 uM by two electrode voltage clamp technique. Type of test: functional, cell-based. The conditions noted are these: Oocyte.
For test [7] the target is unchanged. The test is described as follows: […] activity at human recombinant GABAb 1b/2 receptor expressed in Xenopus laevis oocytes co-expressing GIRK1/4 assessed as inhibition of GABA-induced current at 600 uM by two electrode voltage clamp technique. Type of test: functional, cell-based. The conditions noted are these: Oocyte.
Test [8] has the same target. The test is described as follows: Antagonist activity at human recombinant GABAb 1b/2 receptor expressed in Xenopus laevis oocytes co-expressing GIRK1/4 assessed as inhibition of GABA-induced current at 300 uM by two electrode voltage clamp technique. The class given is functional, cell-based. The conditions noted are these: Oocyte.
The target of test [9] is T2, GABA-A receptor; alpha-1/beta-2/gamma-2 (Homo sapiens). The test is described as follows: Antagonist activity at human recombinant GABAA alpha1beta2gamma2L receptor expressed in Xenopus laevis oocytes assessed as inhibition of GABA-induced current at 300 uM by two electrode voltage clamp technique. The class given is functional, cell-based. The conditions noted are these: Oocyte.

The target in test [10] is T1, Gamma-aminobutyric acid receptor subunit rho-1. The test is described as follows: Antagonist activity at human recombinant GABAc rho-1 receptor expressed in Xenopus laevis oocytes assessed as inhibition of GABA-induced current at 100 uM by two electrode voltage clamp technique. Type of test: functional, cell-based. The conditions noted are these: Oocyte.
Test [11] has as its target T2, GABA-A receptor; alpha-1/beta-2/gamma-2 (Homo sapiens). The test is described as follows: Antagonist activity at human recombinant GABAA alpha1beta2gamma2L receptor expressed in Xenopus laevis oocytes assessed as inhibition of GABA-induced current at 100 uM by two electrode voltage clamp technique. Type of test: functional, cell-based. The conditions noted are these: Oocyte.

Test [12] deals with T1, Gamma-aminobutyric acid receptor subunit rho-1. The test is described as follows: Antagonist activity at human recombinant GABAc rho-1 receptor expressed in Xenopus laevis oocytes assessed as inhibition of GABA-induced current at 600 uM by two electrode voltage clamp technique. The class given is functional, cell-based. The conditions noted are these: Oocyte.

T1 sequence (P24046 whole entry): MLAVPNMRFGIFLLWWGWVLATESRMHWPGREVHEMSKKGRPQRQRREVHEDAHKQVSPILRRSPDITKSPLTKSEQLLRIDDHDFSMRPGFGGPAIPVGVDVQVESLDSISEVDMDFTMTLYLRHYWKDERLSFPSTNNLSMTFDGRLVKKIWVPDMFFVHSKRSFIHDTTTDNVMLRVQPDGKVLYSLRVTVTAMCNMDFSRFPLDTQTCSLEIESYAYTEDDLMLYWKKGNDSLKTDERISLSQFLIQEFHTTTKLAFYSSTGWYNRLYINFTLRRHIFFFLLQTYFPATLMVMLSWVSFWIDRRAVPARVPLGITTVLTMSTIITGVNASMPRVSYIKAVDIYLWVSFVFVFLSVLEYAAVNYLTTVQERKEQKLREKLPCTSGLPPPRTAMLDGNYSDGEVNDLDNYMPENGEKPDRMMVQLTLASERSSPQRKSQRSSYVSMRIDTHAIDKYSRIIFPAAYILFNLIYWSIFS

What is called IC50 is the concentration needed to halve the response being measured. Broadly, the Kb is the equilibrium dissociation constant of an antagonist, usually derived from a functional assay. A word on the EC50: it is the concentration at which the effect is half-maximal. As to `CP(=O)(O)C1=CCNCC1`, the IC50 worked out at 2.22 µM in [1] and 22.1 µM in [2]. Also, the Kb in test [2] (Oocyte) turned out to be 14.9 µM. Moreover, the EC50 in test [3] was determined as 500 µM.

The term inhibition denotes the relative decrease from the control value, in per cent. For `N=C(N)NC1CCP(=O)(O)C1` (stereo not drawn), in test [1], the IC50 is 29.7 µM and the Kb turned out to be 10 µM. For the same compound, the IC50 in [2] was 51.3 µM. In test [4], the inhibition amounted to 29.2%.

With `NCC1CCP(=O)(O)C1` (stereo not drawn), the 50% inhibitory concentration (IC50) in test [1] is 19.9 µM; in test [2] it was 57.1 µM. For the same compound, the inhibition result in [4] and in test [6] was “inactive” throughout. Moreover, the inhibition result in test [5] is “Dose-dependent effect”; in test [7], 45.2%.

`CCCCP(=O)(O)C1=CC[C@H](N)C1`: in test [1], the Kb is 2.1 µM. The inhibition in test [8] turned out to be 22.5%; in test [9], 24.2%.

On to `O=P1(O)CCC(CO)C1` (stereo not drawn), for which the inhibition entry in test [10] and in [11] was “inactive” in each case.

Regarding `NC1CCP(=O)(O)C1` (stereo not drawn), the inhibition result in test [12] and in [4] was “inactive” in each case.

Take `O=C(O)C1CCP(=O)(O)C1` (stereo not drawn): the inhibition entry in test [10] and in [11] was “inactive” throughout.
